In PMC10574185, “Encapsulation and Biological Activity of Hesperetin Derivatives with HP-β-CD” (Molecules, 2023):
≈ marks a conversion by molar mass, not a printed value. Where two headings read alike, the source gives them in different places.

Experiments:
[1] = Phase solubility studies with HP-β-CD; format: physicochemical; settings: for solubility at 60 min: thermodynamic from solid
Procedure: The purpose of this part of the study was to determine the solubility of compounds of hesperetin and its Schiff bases (HHSB, HIN, and HTSC) in aqueous solution at different pHs and temperatures, and the effect of their inclusion in modified HP-β-CD on the aqueous solubility of these compounds at different pH values.
The effect of the presence of HP-β-CD at different temperatures (25, 37, and 60 °C) was determined by developing phase solubility diagrams.
In accordance with the methodology described in Section 3.4, excess amounts of each tested substance were added to aqueous solution with increasing concentration of HP-β-CD up to 16 mM, respectively, in 2 mL of 100 mM sodium acetate buffer (pH 3.6), 100 mM sodium phosphate buffer (pH 6.5) or 100 mM sodium borate buffer (pH 8.5).
Phase solubility studies were conducted according to [64] with some modifications. Excess amounts of each tested substance were added to aqueous solution with increasing concentration of HP-β-CD up to 16 mM, in 2 mL of 100 mM sodium acetate buffer (pH 3.6), 100 mM sodium phosphate buffer (pH 6.5), or 100 mM sodium borate buffer (pH 8.5), respectively. The samples were maintained in an ultrasonic bath at various temperatures (25, 37, and 60 °C) for 60 min to reach equilibrium. The aqueous solutions were then filtered through 0.45 µm acetate cellulose (CA) membrane filter and diluted. The tested compound concentration on each clear filtrate was spectrophotometrically determined by measuring at their wavelength maximum.
The complexation constant (Kc) between studied molecules and HP-β-CD was determined by using Equation (1):(1) Kc=slope/S0 (1−slope) where S0 means the water solubility of the studied substance, and “slope” means the slope of the phase solubility diagram.
Complexation efficiency was calculated from the slope of the phase solubility diagram using Equation (2):(2) CE=S0×Kc=slope/1−slope
The CE was also applied to evaluate the molar ratio in solution of tested systems using Equation (3):(3) Compound:HP−β−CD=1:(1+1/CE)

[2] = ABTS^•+ radical cation decolorization assay; settings: concentration 0.1 mg/mL, mean ± SD
Procedure: (§1) To evaluate the antioxidant ability of the tested systems, antioxidant analysis was performed. Antioxidants can scavenge hydroxyl radicals in two ways: by reacting directly with hydroxyl radicals (DPPH^•, ABTS^•+) or indirectly inhibiting the formation of hydroxyl radicals by chelating metal ions involved in the production of hydroxyl radicals. The antioxidant activity of the systems studied was investigated by using DPPH^• scavenging, ABTS^•+ scavenging ability, and Fe^2+-chelating ability. In this study, the antioxidant activity of pure hesperetin and its Schiff bases (HHSB, HIN, and HTSC) and HP-β-CD complexes were compared, and the positive control was Trolox.
Antioxidant activity using ABTS^•+ cation radical scavenging was determined according to a modified method. ABTS solution (2.5 mM) was mixed with 1.0 mM potassium persulfate solution and left at room temperature in the dark for 12-24 h. After this time, the absorbance of the finished ABTS^•+ solution was corrected with ethanol to 0.70 ± 0.02 at 745 nm. A total of 100 µL of the sample was reacted for 5 min with 2 mL of ABTS^•+ solution (A745 nm = 0.70 ± 0.02). The absorbance value of the reaction mixture was measured at 745 nm. […] Scavenging activity (%) = [1 − (Asample − Ablank)/Acontrol] × 100%(4) where Acontrol is the absorbance value of the control (ABTS^•+ solution with water), Ablank is the absorbance value of samples mixed with anhydrous ethanol, and Asample is the absorbance value of the added test sample to ABTS^•+ solution at 745 nm, respectively.

[3] = FRAP assay (ferric-ion reducing antioxidant power); settings: mean ± SD
Procedure: as §1
The antioxidant capacity determined by the FRAP assay (the ability of plasma to reduce iron) was carried out using a modification of the FRAP assay. The FRAP reagent consisted of the following solutions: 300 mM acetate, pH 3.6 glacial acetic acid buffer, 20 mM ferric chloride (FeCl3×6H2O), and 10 mM 2,4,6-tripyridyl-S-triazine (TPTZ) prepared in 40 mM HCl. The aforementioned solutions were mixed together in a ratio of 10:1:1 (v/v/v). The FRAP assay consisted of adding 15 µL of sample to 1.98 mL of reagent and incubating the mixture at 37 °C for 4 min. Absorbance measurement was recorded at 593 nm against a blank. Total antioxidant capacity was estimated relative to a standard of known FRAP concentration, ferrous sulfate.

[4] = tested on: Staphylococcus aureus ATCC 25923; test: Minimal inhibition concentration (dilution + diffusion-well); format: cell-based; settings: ATCC25923, 37 °C, 18 h
Procedure: The MIC was performed for compounds and strains sensitive to their action in the antagonistic test. Minimum inhibitory concentration was determined by combining the dilution method with the diffusion-well method. Test compounds at a concentration of 500 μM were prepared in 5% (w/w) DMSO. Surface layer of microorganisms, against which antagonistic activity was noted, were prepared in the same way as for the antagonistic test. Then, two-fold sequential dilutions of the test compounds in the range of 500 µM to 62.5 µM were prepared. Wells with a diameter of 8 mm cut in the Mueller–Hinton Agar (Merck, Darmstadt, Germany) with the test strain were added with 50 µL of the prepared dilutions, which corresponded to the following concentrations of the tested compounds: […], 1.25 mM, 0.625 mM, and […]. Petri dishes prepared in this way were incubated at 37 °C for 18 h. After a given time, the MIC value was read. The MIC concentration expressed in µM was the first concentration of the tested compounds at which growth inhibition of the test strain was observed.

[5] = aqueous buffer, 25 °C, pH 3.6 sodium acetate buffer, without cyclodextrin, read-out: solubility without HP-β-CD (value in brackets) (converted)
[6] = aqueous buffer, 25 °C, pH 6.5 sodium phosphate buffer, without cyclodextrin, read-out: solubility without HP-β-CD (value in brackets) (converted)
[7] = aqueous buffer, 25 °C, pH 8.5 sodium borate buffer, without cyclodextrin, read-out: solubility without HP-β-CD (value in brackets) (converted)
[8] = aqueous buffer, 37 °C, pH 3.6 sodium acetate buffer, without cyclodextrin, read-out: solubility without HP-β-CD (value in brackets) (converted)
[9] = aqueous buffer, 37 °C, pH 6.5 sodium phosphate buffer, without cyclodextrin, read-out: solubility without HP-β-CD (value in brackets) (converted)
[10] = aqueous buffer, 37 °C, pH 8.5 sodium borate buffer, without cyclodextrin, read-out: solubility without HP-β-CD (value in brackets) (converted)
[11] = aqueous buffer, 60 °C, pH 3.6 sodium acetate buffer, without cyclodextrin, read-out: solubility without HP-β-CD (value in brackets) (converted)
[12] = aqueous buffer, 60 °C, pH 6.5 sodium phosphate buffer, without cyclodextrin, read-out: solubility without HP-β-CD (value in brackets) (converted)
[13] = aqueous buffer, 60 °C, pH 8.5 sodium borate buffer, without cyclodextrin, read-out: solubility without HP-β-CD (value in brackets) (converted)
[14] = 25 °C, pH 3.6 sodium acetate buffer, with HP-β-CD, read-out: S0 (solubility with HP-β-CD)
[15] = 25 °C, pH 6.5 sodium phosphate buffer, with HP-β-CD, read-out: S0 (solubility with HP-β-CD)
[16] = 25 °C, pH 8.5 sodium borate buffer, with HP-β-CD, read-out: S0 (solubility with HP-β-CD)
[17] = 37 °C, pH 3.6 sodium acetate buffer, with HP-β-CD, read-out: S0 (solubility with HP-β-CD)
[18] = 37 °C, pH 6.5 sodium phosphate buffer, with HP-β-CD, read-out: S0 (solubility with HP-β-CD)
[19] = 37 °C, pH 8.5 sodium borate buffer, with HP-β-CD, read-out: S0 (solubility with HP-β-CD)
[20] = 60 °C, pH 3.6 sodium acetate buffer, with HP-β-CD, read-out: S0 (solubility with HP-β-CD)
[21] = 60 °C, pH 6.5 sodium phosphate buffer, with HP-β-CD, read-out: S0 (solubility with HP-β-CD)
[22] = 60 °C, pH 8.5 sodium borate buffer, with HP-β-CD, read-out: S0 (solubility with HP-β-CD)

## COc1ccc(C2C/C(=N\NC(=O)c3ccccc3)c3c(O)cc(O)cc3O2)cc1O (racemic) [HHSB]
[1]; 25 °C, pH 3.6, with HP-β-CD
  CE complexation efficiency: 1.4%
  Kc complexation constant: 341 ± 79 M⁻¹
[1]; 25 °C, pH 6.5, with HP-β-CD
  CE complexation efficiency: 0.7%
  Kc complexation constant: 150 ± 21 M⁻¹
[1]; 25 °C, pH 8.5, with HP-β-CD
  CE complexation efficiency: 0.7%
  Kc complexation constant: 150 ± 19 M⁻¹
[1]; 37 °C, pH 3.6, with HP-β-CD
  CE complexation efficiency: 1.1%
  Kc complexation constant: 226 ± 92 M⁻¹
[1]; 37 °C, pH 6.5, with HP-β-CD
  CE complexation efficiency: 2.5%
  Kc complexation constant: 618 ± 36 M⁻¹
[1]; 37 °C, pH 8.5, with HP-β-CD
  CE complexation efficiency: 0.15%
  Kc complexation constant: 100 ± 34 M⁻¹
[1]; 60 °C, pH 3.6, with HP-β-CD
  CE complexation efficiency: 0.9%
  Kc complexation constant: 250 ± 20 M⁻¹
[1]; 60 °C, pH 6.5, with HP-β-CD
  CE complexation efficiency: 1.8%
  Kc complexation constant: 155 ± 4 M⁻¹
[1]; 60 °C, pH 8.5
  increase of solubility with HP-β-CD: five-fold
[1]; 60 °C, pH 8.5, with HP-β-CD
  CE complexation efficiency: 7%
  Kc complexation constant: 728 ± 82 M⁻¹
[1]; [5]
  solubility at 60 min: 18 µM (≈ 7.57 µg/mL)
[1]; [6]
  solubility at 60 min: 25 µM (≈ 10.5 µg/mL)
[1]; [7]
  solubility at 60 min: 25 µM (≈ 10.5 µg/mL)
[1]; [8]
  solubility at 60 min: 20 µM (≈ 8.41 µg/mL)
[1]; [9]
  solubility at 60 min: 5 µM (≈ 2.1 µg/mL)
[1]; [10]
  solubility at 60 min: 5 µM (≈ 2.1 µg/mL)
[1]; [11]
  solubility at 60 min: 12 µM (≈ 5.05 µg/mL)
[1]; [12]
  solubility at 60 min: 27 µM (≈ 11.4 µg/mL)
[1]; [13]
  solubility at 60 min: 18 µM (≈ 7.57 µg/mL)
[1]; [14]
  solubility at 60 min: 41 ± 21 µM (≈ 17.2 µg/mL)
[1]; [15]
  solubility at 60 min: 45 ± 5 µM (≈ 18.9 µg/mL)
[1]; [16]
  solubility at 60 min: 45 ± 5 µM (≈ 18.9 µg/mL)
[1]; [17]
  solubility at 60 min: 50 ± 10 µM (≈ 21 µg/mL)
[1]; [18]
  solubility at 60 min: 41 ± 23 µM (≈ 17.2 µg/mL)
[1]; [19]
  solubility at 60 min: 15 ± 6.1 µM (≈ 6.31 µg/mL)
[1]; [20]
  solubility at 60 min: 36 ± 14 µM (≈ 15.1 µg/mL)
[1]; [21]
  solubility at 60 min: 115 ± 53 µM (≈ 48.3 µg/mL)
[1]; [22]
  solubility at 60 min: 96 ± 42 µM (≈ 40.4 µg/mL)
[2]
  ABTS^•+ antioxidant activity: 98.11 ± 5.0%
[3]
  FRAP antioxidant activity: 0.000005 ± 0.00005 mmolFe(II)/L
[4]
  MIC: 2.5 µM

## COc1ccc(C2CC(=NNC(N)=S)c3c(O)cc(O)cc3O2)cc1O (stereo not drawn) [HTSC, N-[2,3-dihydro-5,7-dihydroxy-2-(3-hydroxy-4-methoxyphenyl)chromen-4-ylidene]thiosemicarbazide]
[1]; 25 °C, pH 3.6, with HP-β-CD
  CE complexation efficiency: 0.07%
  Kc complexation constant: 13 ± 2.9 M⁻¹
[1]; 25 °C, pH 6.5, HP-β-CD at 16 mM
  increase of solubility with HP-β-CD: five-fold
[1]; 25 °C, pH 6.5, with HP-β-CD
  CE complexation efficiency: 0.07%
  Kc complexation constant: 11 ± 1.6 M⁻¹
[1]; 25 °C, pH 8.5, with HP-β-CD
  CE complexation efficiency: 0.1%
  Kc complexation constant: 12.5 ± 0.3 M⁻¹
[1]; 37 °C, pH 3.6, with HP-β-CD
  CE complexation efficiency: 0.1%
  Kc complexation constant: 16 ± 1.7 M⁻¹
[1]; 37 °C, pH 6.5, with HP-β-CD
  CE complexation efficiency: 0.1%
  Kc complexation constant: 16 ± 1.7 M⁻¹
[1]; 37 °C, pH 8.5, with HP-β-CD
  CE complexation efficiency: 0.3%
  Kc complexation constant: 18 ± 4.2 M⁻¹
[1]; 60 °C, pH 3.6
  increase of solubility with HP-β-CD: five-fold
[1]; 60 °C, pH 3.6, with HP-β-CD
  CE complexation efficiency: 0.5%
  Kc complexation constant: 28 ± 0.3 M⁻¹
[1]; 60 °C, pH 6.5, with HP-β-CD
  CE complexation efficiency: 0.04%
  Kc complexation constant: 2.2 ± 0.6 M⁻¹
[1]; 60 °C, pH 8.5, with HP-β-CD
  CE complexation efficiency: 0.1%
  Kc complexation constant: 3.2 ± 0.6 M⁻¹
[1]; [5]
  solubility at 60 min: 17 µM (≈ 6.38 µg/mL)
[1]; [6]
  solubility at 60 min: 11 µM (≈ 4.13 µg/mL)
[1]; [7]
  solubility at 60 min: 20 µM (≈ 7.51 µg/mL)
[1]; [8]
  solubility at 60 min: 28 µM (≈ 10.5 µg/mL)
[1]; [9]
  solubility at 60 min: 27 µM (≈ 10.1 µg/mL)
[1]; [10]
  solubility at 60 min: 220 µM (≈ 82.6 µg/mL)
[1]; [11]
  solubility at 60 min: 37 µM (≈ 13.9 µg/mL)
[1]; [12]
  solubility at 60 min: 160 µM (≈ 60.1 µg/mL)
[1]; [13]
  solubility at 60 min: 250 µM (≈ 93.9 µg/mL)
[1]; [14]
  solubility at 60 min: 54 ± 30 µM (≈ 20.3 µg/mL)
[1]; [15]
  solubility at 60 min: 61 ± 20 µM (≈ 22.9 µg/mL)
[1]; [16]
  solubility at 60 min: 70 ± 30 µM (≈ 26.3 µg/mL)
[1]; [17]
  solubility at 60 min: 76 ± 35 µM (≈ 28.5 µg/mL)
[1]; [18]
  solubility at 60 min: 68 ± 33 µM (≈ 25.5 µg/mL)
[1]; [19]
  solubility at 60 min: 160 ± 54 µM (≈ 60.1 µg/mL)
[1]; [20]
  solubility at 60 min: 170 ± 65 µM (≈ 63.8 µg/mL)
[1]; [21]
  solubility at 60 min: 180 ± 60 µM (≈ 67.6 µg/mL)
[1]; [22]
  solubility at 60 min: 270 ± 89 µM (≈ 101 µg/mL)
[2]
  ABTS^•+ antioxidant activity: 86.61 ± 4.6%
[3]
  FRAP antioxidant activity: 0.000005 ± 0.00005 mmolFe(II)/L
[4]
  MIC: 1.25 µM
